Measurements taken from PubChem BioAssay AID248 (DTP/NCI, 2004).
Where “and” joins values, the source holds several entries; their conditions need not be identical. Identical values can stand only once. Toxic doses and inconclusive results are not listed. Cut-off read from the data, not from the text of the source: active = T/C of 150% or more; inactive = T/C below 125%. Square brackets hold non-standard residues; d marks the D form. Peptide text beside a SMILES is read from it. * marks the point of attachment. ξ: configuration not given here. Cbz = O=C(OCc1ccccc1)*; ξP = O=C(O)C1CCCN1

Test system: L1210 leukemia ip in BDF1 mice, survival T/C
Assay: NCI In Vivo Anticancer Drug Screen. Data for tumor model L1210 Leukemia (intraperitoneal) in B6D2F1 (BDF1) mice
Conditions: endpoint: mean survival time, higher = longer survival
Outline: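 Read-out is survival time, reported as the treated-group measurement over the vehicle-control measurement.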

[1] = dose: 100.0 mg/kg/injection, schedule: Q01DX009 (ip), vehicle: Klucel (hydroxypropylcellulose) (HPC)
[2] = dose: 200.0 mg/kg/injection, schedule: Q01DX009 (ip), vehicle: Klucel (hydroxypropylcellulose) (HPC)
[3] = dose: 400.0 mg/kg/injection, schedule: Q01DX009 (ip), vehicle: Klucel (hydroxypropylcellulose) (HPC)
[4] = dose: 100.0 mg/kg/injection, schedule: Q04DX003 (ip), vehicle: Klucel (hydroxypropylcellulose) (HPC)
[5] = dose: 200.0 mg/kg/injection, schedule: Q04DX003 (ip), vehicle: Klucel (hydroxypropylcellulose) (HPC)
[6] = dose: 400.0 mg/kg/injection, schedule: Q04DX003 (ip), vehicle: Klucel (hydroxypropylcellulose) (HPC)
[7] = dose: 100.0 mg/kg/injection, schedule: Q01DX001 (ip), vehicle: saline with Tween-80
[8] = dose: 200.0 mg/kg/injection, schedule: Q01DX001 (ip), vehicle: saline with Tween-80
[9] = dose: 50.0 mg/kg/injection, schedule: Q01DX009 (ip), vehicle: Klucel (hydroxypropylcellulose) (HPC)
[10] = dose: 50.0 mg/kg/injection, schedule: Q04DX003 (ip), vehicle: Klucel (hydroxypropylcellulose) (HPC)
[11] = dose: 100.0 mg/kg/injection, schedule: Q01DX001 (ip), vehicle: saline
[12] = dose: 200.0 mg/kg/injection, schedule: Q01DX001 (ip), vehicle: saline
[13] = dose: 50.0 mg/kg/injection, schedule: Q04DX003 (ip), vehicle: saline
[14] = dose: 100.0 mg/kg/injection, schedule: Q04DX003 (ip), vehicle: saline
[15] = dose: 200.0 mg/kg/injection, schedule: Q04DX003 (ip), vehicle: saline
[16] = dose: 5.0 mg/kg/injection, schedule: Q01DX001 (ip), vehicle: other
[17] = dose: 10.0 mg/kg/injection, schedule: Q01DX001 (ip), vehicle: other
[18] = dose: 20.0 mg/kg/injection, schedule: Q01DX001 (ip), vehicle: other
[19] = dose: 40.0 mg/kg/injection, schedule: Q01DX001 (ip), vehicle: other

Measured: T/C

CCOC(=O)/C=C/C(=O)OCC
inactive: [1] 100 % of control | [2] 103 % of control | [3] 108 % of control

CC(=O)Nc1cc2ccc3ccccc3c2c2ccccc12
inactive: dose: 75.0 mg/kg/injection, schedule: Q04DX002 (ip), vehicle: Klucel (hydroxypropylcellulose) (HPC) 102 % of control | dose: 150.0 mg/kg/injection, schedule: Q04DX002 (ip), vehicle: Klucel (hydroxypropylcellulose) (HPC) 97 % of control | dose: 300.0 mg/kg/injection, schedule: Q04DX002 (ip), vehicle: Klucel (hydroxypropylcellulose) (HPC) 97 % of control

O=C(/C=C\c1ccccc1)/C=C/c1ccccc1
inactive: [1] 90 % of control | dose: 100.0 mg/kg/injection, schedule: Q01DX009 (sc), vehicle: olive oil, sesame oil, peanut oil 113 % of control | [4] 95 % of control | [2] 95 % of control | dose: 200.0 mg/kg/injection, schedule: Q01DX009 (sc), vehicle: olive oil, sesame oil, peanut oil 98 % of control | [5] 98 % of control | dose: 400.0 mg/kg/injection, schedule: Q01DX009 (sc), vehicle: olive oil, sesame oil, peanut oil 102 % of control | [6] 98 % of control

Nc1nc(N)n(Cc2ccc3c(c2)OCO3)n1
inactive: [7] 106 % of control | dose: 100.0 mg/kg/injection, schedule: Q04DX003 (ip), vehicle: saline with Tween-80 104 % of control | [8] 104 % of control | dose: 200.0 mg/kg/injection, schedule: Q01DX009 (ip), vehicle: saline with Tween-80 87 % of control | dose: 200.0 mg/kg/injection, schedule: Q04DX003 (ip), vehicle: saline with Tween-80 101 % of control | dose: 400.0 mg/kg/injection, schedule: Q01DX001 (ip), vehicle: saline with Tween-80 108 % of control | dose: 400.0 mg/kg/injection, schedule: Q01DX009 (ip), vehicle: saline with Tween-80 101 % of control | dose: 400.0 mg/kg/injection, schedule: Q04DX003 (ip), vehicle: saline with Tween-80 102 % of control

O=C(NCC(=O)N1CCCC1C(=O)O)OCc1ccccc1 (stereo not drawn) (Cbz-Gly-[ξP]-OH)
inactive: [9] 93 % of control | [10] 96 % of control | [1] 97 % of control | [4] 91 % of control | [2] 93 % of control | [5] 93 % of control

Cc1ccc(S(=O)(=O)N/N=C2/C(=O)C3CCC2C3)cc1 (stereo not drawn)
inactive: dose: 50.0 mg/kg/injection, schedule: Q01DX001 (ip), vehicle: saline with Tween-80 92 % of control | [7] 92 % of control | [8] 87 % of control

N#CC1C(=O)NC(c2ccccc2)=CC1c1ccccc1 (stereo not drawn)
inactive: [11] 100 % of control | [12] 94 % of control | dose: 400.0 mg/kg/injection, schedule: Q01DX001 (ip), vehicle: saline 94 % of control

CC(=O)NN(C)C(C)=O
inactive: dose: 12.5 mg/kg/injection, schedule: Q04DX003 (ip), vehicle: saline 110 % of control | dose: 25.0 mg/kg/injection, schedule: Q04DX003 (ip), vehicle: saline 120 % of control | [13] 112 % of control | [14] 101 % of control | dose: 130.0 mg/kg/injection, schedule: Q04DX003 (ip), vehicle: saline 105 % of control | [15] 96 % of control and 120 % of control | dose: 300.0 mg/kg/injection, schedule: Q04DX003 (ip), vehicle: saline 100 % of control | dose: 400.0 mg/kg/injection, schedule: Q04DX003 (ip), vehicle: saline 106 % of control

O=[N+]([O-])c1ccc(Sc2ccsc2)c([N+](=O)[O-])c1
inactive: [11] 101 % of control | [12] 98 % of control

O=C1c2ccccc2S(=O)(=O)N1CCN1C(=O)c2ccccc2S1(=O)=O
inactive: [4] 94 % of control | [5] 93 % of control | [6] 94 % of control

O=C1C(O)=C(c2ccc(O)cc2)C(=O)C(O)=C1c1ccc(O)cc1
inactive: dose: 25.0 mg/kg/injection, schedule: Q04DX002 (ip), vehicle: Klucel (hydroxypropylcellulose) (HPC) 88 % of control | dose: 25.0 mg/kg/injection, schedule: Q04DX002 (oral), vehicle: saline with Tween-80 105 % of control | dose: 50.0 mg/kg/injection, schedule: Q04DX002 (ip), vehicle: Klucel (hydroxypropylcellulose) (HPC) 95 % of control | dose: 50.0 mg/kg/injection, schedule: Q04DX002 (oral), vehicle: saline with Tween-80 98 % of control | dose: 100.0 mg/kg/injection, schedule: Q04DX002 (ip), vehicle: Klucel (hydroxypropylcellulose) (HPC) 103 % of control | dose: 100.0 mg/kg/injection, schedule: Q04DX002 (oral), vehicle: saline with Tween-80 112 % of control

[CH3][Sn]([CH3])=[O]
inactive: [16] 95 % of control | dose: 5.0 mg/kg/injection, schedule: Q01DX001 (ip), vehicle: saline 107 % of control | [17] 98 % of control | dose: 10.0 mg/kg/injection, schedule: Q01DX001 (ip), vehicle: saline 98 % of control | [18] 93 % of control | dose: 20.0 mg/kg/injection, schedule: Q01DX001 (ip), vehicle: saline 108 % of control | [19] 103 % of control | dose: 40.0 mg/kg/injection, schedule: Q01DX001 (ip), vehicle: saline 95 % of control

O=C(Nc1c(Oc2ccc(Cl)cc2Cl)ccc(Cl)c1S(=O)(=O)O)Nc1c(Oc2ccc(Cl)cc2Cl)ccc(Cl)c1S(=O)(=O)O
inactive: [13] 101 % of control | [14] 97 % of control | [15] 95 % of control

N#CCN1C(=O)c2ccccc2S1(=O)=O
inactive: dose: 222.0 mg/kg/injection, schedule: Q01DX Z (ip), vehicle: methylcellulose (MC) 110 % of control | dose: 333.0 mg/kg/injection, schedule: Q01DX Z (ip), vehicle: methylcellulose (MC) 113 % of control | dose: 500.0 mg/kg/injection, schedule: Q01DX Z (ip), vehicle: methylcellulose (MC) 102 % of control

CCOc1ccc(NC(=O)C(Br)C(Br)c2ccccc2)cc1 (stereo not drawn)
inactive: [1] 100 % of control | [2] 96 % of control | [3] 91 % of control

CSc1ncnc2nncnc12
inactive: [16] 104 % of control | [17] 106 % of control | [18] 101 % of control | [19] 98 % of control

c1ccc2c(c1)ccc1ccc[s+]c12
inactive: [9] 95 % of control | [10] 108 % of control | dose: 100.0 mg/kg/injection, schedule: Q01DX001 (ip), vehicle: acetone 103 % of control | [1] 94 % of control | [4] 104 % of control | dose: 200.0 mg/kg/injection, schedule: Q01DX001 (ip), vehicle: acetone 103 % of control | [2] 97 % of control | [5] 104 % of control | dose: 400.0 mg/kg/injection, schedule: Q01DX001 (ip), vehicle: acetone 106 % of control
